≈ marks a conversion by molar mass, not a printed value. Blank lines part the entries; values can stand above or below the compound they belong to. Calls of active or inactive are those of the source. No cut-off for these calls is given here.
What was measured:
[1] = biological target: T1, Kinesin-like protein KIF11 (Homo sapiens, UniProt P52732); experiment: Inhibition of human recombinant C-terminal His6-tagged KSP ATPase activity after 1 hr by malachite green assay
T1 sequence (P52732 whole entry): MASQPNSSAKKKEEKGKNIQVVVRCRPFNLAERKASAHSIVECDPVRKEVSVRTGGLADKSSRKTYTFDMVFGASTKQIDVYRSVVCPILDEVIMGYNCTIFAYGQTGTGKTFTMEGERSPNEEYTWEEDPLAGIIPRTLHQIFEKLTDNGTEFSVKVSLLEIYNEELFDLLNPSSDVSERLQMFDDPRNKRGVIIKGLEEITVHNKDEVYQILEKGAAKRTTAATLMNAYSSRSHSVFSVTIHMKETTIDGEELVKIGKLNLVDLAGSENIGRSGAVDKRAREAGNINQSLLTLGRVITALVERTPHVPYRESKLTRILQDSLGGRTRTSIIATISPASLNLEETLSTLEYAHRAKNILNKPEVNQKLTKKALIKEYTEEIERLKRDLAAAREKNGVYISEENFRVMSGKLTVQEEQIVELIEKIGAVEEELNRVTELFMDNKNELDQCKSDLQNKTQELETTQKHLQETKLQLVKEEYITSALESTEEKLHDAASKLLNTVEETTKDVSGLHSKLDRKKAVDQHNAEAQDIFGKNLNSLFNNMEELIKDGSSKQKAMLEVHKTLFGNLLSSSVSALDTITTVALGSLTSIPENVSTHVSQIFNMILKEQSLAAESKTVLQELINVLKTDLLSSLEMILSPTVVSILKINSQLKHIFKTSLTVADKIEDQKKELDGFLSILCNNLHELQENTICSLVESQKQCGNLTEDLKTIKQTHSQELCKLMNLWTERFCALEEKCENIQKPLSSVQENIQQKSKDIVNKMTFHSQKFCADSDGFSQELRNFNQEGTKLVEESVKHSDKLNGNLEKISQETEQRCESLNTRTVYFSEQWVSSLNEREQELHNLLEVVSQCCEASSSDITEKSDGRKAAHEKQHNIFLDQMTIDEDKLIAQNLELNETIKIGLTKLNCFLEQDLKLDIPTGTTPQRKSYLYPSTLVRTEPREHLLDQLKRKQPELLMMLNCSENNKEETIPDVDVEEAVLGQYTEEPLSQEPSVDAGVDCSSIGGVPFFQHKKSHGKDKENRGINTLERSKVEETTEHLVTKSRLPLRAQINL

COLO 205 = experiment: Anticancer activity against human COLO205 cells after 72 hrs by MTS/PMS assay; type: functional, cell-based
[2] = Aqueous solubility of the compound in 0.1 M phosphate buffer at pH 7.4 after 24 hrs by HPLC-UV method; type: physicochemical
Cavia porcellus [3] = species: Cavia porcellus; experiment: Binding affinity to L-type calcium channel phenylalkylamine binding site in guinea pig ileum at 10 uM by radioligand displacement assay; type: tissue-based
[4] = biological target: Somatostatin receptor type 1 (Homo sapiens) (UniProt P30872); experiment: Binding affinity to human SST1 receptor at 10 uM by radioligand displacement assay
Sequence of Somatostatin receptor type 1 (Homo sapiens) (P30872 whole entry): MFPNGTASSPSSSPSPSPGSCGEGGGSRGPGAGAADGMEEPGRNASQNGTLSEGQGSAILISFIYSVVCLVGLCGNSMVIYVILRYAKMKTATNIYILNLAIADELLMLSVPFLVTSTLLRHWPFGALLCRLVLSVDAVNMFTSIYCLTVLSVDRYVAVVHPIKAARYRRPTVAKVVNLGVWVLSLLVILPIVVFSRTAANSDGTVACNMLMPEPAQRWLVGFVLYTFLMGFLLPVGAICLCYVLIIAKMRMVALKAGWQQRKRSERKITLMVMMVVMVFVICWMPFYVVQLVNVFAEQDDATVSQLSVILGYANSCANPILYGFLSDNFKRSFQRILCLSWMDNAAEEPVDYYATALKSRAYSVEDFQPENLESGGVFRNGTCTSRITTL

[5] = biological target: T2, Polyunsaturated fatty acid 5-lipoxygenase (Homo sapiens) (UniProt P09917); experiment: Inhibition of human 5-lipoxygenase at 10 uM
T2 sequence (whole entry): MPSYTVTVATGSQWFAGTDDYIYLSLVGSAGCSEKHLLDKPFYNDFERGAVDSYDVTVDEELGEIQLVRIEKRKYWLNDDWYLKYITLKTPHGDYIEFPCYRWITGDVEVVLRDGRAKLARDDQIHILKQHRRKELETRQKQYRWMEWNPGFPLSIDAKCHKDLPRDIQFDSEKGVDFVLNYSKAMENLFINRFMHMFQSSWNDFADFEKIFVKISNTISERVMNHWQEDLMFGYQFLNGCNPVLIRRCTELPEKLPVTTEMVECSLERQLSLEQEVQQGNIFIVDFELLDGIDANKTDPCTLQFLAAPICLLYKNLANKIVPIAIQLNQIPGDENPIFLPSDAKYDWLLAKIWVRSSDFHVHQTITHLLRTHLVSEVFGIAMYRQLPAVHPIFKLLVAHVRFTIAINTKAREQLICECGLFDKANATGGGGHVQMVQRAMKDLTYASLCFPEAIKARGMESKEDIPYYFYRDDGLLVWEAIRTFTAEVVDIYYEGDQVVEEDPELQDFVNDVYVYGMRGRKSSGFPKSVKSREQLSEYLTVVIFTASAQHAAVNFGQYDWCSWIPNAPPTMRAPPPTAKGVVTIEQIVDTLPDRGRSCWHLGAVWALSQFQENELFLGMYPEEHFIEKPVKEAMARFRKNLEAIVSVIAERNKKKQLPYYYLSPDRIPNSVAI

Rattus norvegicus [6] = experiment: Increase in caspase 3 activation in Hans Wistar rat hollow fiber model implanted with human COLO205 cells at 6 mg/kg, iv after 48 hrs; type: functional, organism-based; set-up: dose 6 mg/kg; details: COLO 205
Rattus norvegicus [7] = experiment: Increase in caspase 3 activation in Hans Wistar rat hollow fiber model implanted with human COLO205 cells at 12 mg/kg, iv after 48 hrs; type: functional, organism-based; set-up: dose 12 mg/kg; details: COLO 205
Rattus norvegicus [8] = experiment: Increase monasters formation in Hans Wistar rat hollow fiber model implanted with human COLO205 cells at 6 mg/kg, iv after 24 hrs; type: functional, organism-based; set-up: dose 6 mg/kg; details: COLO 205
Rattus norvegicus [9] = experiment: Increase monasters formation in Hans Wistar rat hollow fiber model implanted with human COLO205 cells at 6 mg/kg, iv after 48 hrs; type: functional, organism-based; set-up: dose 6 mg/kg; details: COLO 205
Rattus norvegicus [10] = experiment: Increase monasters formation in Hans Wistar rat hollow fiber model implanted with human COLO205 cells at 12 mg/kg, iv after 24 hrs; type: functional, organism-based; set-up: dose 12 mg/kg; details: COLO 205
Rattus norvegicus [11] = experiment: Increase monasters formation in Hans Wistar rat hollow fiber model implanted with human COLO205 cells at 12 mg/kg, iv after 48 hrs; type: functional, organism-based; set-up: dose 12 mg/kg; details: COLO 205
Rattus norvegicus [12] = experiment: Increase of phospho-histone-H3 positive cells in Hans Wistar rat hollow fiber model implanted with human COLO205 cells at 6 mg/kg, iv after 24 hrs; type: functional, organism-based; set-up: dose 6 mg/kg; details: COLO 205
Rattus norvegicus [13] = experiment: Increase of phospho-histone-H3 positive cells in Hans Wistar rat hollow fiber model implanted with human COLO205 cells at 12 mg/kg, iv after 24 hrs; type: functional, organism-based; set-up: dose 12 mg/kg; details: COLO 205
[14] = biological target: Tyrosine-protein kinase Lck (Homo sapiens) (UniProt P06239); experiment: Inhibition of LCK at 10 uM
Sequence of Tyrosine-protein kinase Lck (Homo sapiens) (P06239 2-509 limits assumed): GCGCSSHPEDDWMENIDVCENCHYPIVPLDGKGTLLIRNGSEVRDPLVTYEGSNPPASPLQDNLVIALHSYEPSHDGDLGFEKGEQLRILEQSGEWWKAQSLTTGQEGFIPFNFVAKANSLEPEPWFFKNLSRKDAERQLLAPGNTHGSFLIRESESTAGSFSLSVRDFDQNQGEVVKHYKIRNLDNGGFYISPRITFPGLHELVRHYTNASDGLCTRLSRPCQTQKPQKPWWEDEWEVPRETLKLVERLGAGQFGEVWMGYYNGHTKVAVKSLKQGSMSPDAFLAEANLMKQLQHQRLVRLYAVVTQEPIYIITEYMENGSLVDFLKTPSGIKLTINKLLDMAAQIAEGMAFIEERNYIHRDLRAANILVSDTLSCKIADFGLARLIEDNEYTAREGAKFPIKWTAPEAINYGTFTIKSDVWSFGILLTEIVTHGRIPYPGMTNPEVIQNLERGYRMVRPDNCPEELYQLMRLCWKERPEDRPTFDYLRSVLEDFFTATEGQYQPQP

[15] = biological target: Ribosomal protein S6 kinase alpha-1 (Homo sapiens) (UniProt Q15418); experiment: Inhibition of MAPKAP-K1a at 10 uM
Sequence of Ribosomal protein S6 kinase alpha-1 (Homo sapiens) (Q15418 whole entry): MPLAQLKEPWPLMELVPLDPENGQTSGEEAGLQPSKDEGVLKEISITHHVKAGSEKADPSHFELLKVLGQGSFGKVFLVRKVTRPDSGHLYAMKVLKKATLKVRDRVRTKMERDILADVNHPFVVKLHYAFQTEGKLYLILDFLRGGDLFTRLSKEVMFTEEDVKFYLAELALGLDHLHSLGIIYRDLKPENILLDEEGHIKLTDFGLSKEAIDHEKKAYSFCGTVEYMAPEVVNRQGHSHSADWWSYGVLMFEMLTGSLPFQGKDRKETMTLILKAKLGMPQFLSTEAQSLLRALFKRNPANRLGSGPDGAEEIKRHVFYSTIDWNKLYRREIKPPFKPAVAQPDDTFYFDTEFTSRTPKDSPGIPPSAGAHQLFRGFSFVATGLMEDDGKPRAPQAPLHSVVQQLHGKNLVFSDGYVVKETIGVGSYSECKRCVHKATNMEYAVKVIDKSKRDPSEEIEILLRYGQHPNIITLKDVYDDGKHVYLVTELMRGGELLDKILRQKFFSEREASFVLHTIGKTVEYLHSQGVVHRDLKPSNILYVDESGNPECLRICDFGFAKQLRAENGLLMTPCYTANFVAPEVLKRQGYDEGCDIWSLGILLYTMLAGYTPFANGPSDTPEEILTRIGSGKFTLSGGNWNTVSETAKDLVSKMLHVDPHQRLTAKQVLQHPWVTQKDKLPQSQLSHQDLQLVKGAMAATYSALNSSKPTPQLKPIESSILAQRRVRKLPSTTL

Cavia porcellus [16] = species: Cavia porcellus; experiment: Binding affinity to sodium channel site 2 in guinea pig atria at 10 uM by radioligand displacement assay
Cavia porcellus [17] = species: Cavia porcellus; experiment: Binding affinity to L-type calcium channel benzothiazepine binding site in guinea pig ileum at 10 uM by radioligand displacement assay; type: tissue-based
[18] = Clearance in nude mouse; type: ADME, organism-based; details: in vivo

IC50 [1]: 0.008 µM
IC50 (COLO 205; colo 205): 0.03 µM
solubility at 24 h [2]: 1240 µM (≈ 588 µg/mL)
Compound: CCC(c1nc2sccc2c(=O)n1Cc1ccccc1)N(CCCN)C(=O)c1ccc(C)cc1 (stereo in doubt; 56)

IC50 [1]: 0.03 µM
IC50 (COLO 205; Homo sapiens, COLO 205, 72 h): 0.16 µM
Compound: CCC(c1nc2ccsc2c(=O)n1Cc1ccccc1)N(CCCN)C(=O)c1ccc(Br)cc1 (centres undefined)

IC50 [1]: 0.09 µM
IC50 (COLO 205; Homo sapiens, COLO 205, 72 h): 0.14 µM
Compound: CCC(c1nc2ccsc2c(=O)n1Cc1ccccc1)N(CCCN)C(=O)c1cccc(C)c1 (centres undefined)

IC50 [1]: 0.21 µM
IC50 (COLO 205; Homo sapiens, COLO 205, 72 h): 1.56 µM
Compound: CCC(c1nc2ccsc2c(=O)n1Cc1ccc(Cl)cc1)N(CCCN)C(=O)c1ccc(C)cc1 (centres undefined)

IC50 [1]: 0.76 µM
IC50 (COLO 205; Homo sapiens, COLO 205, 72 h): 3.08 µM
Compound: CCC(c1nc2ccsc2c(=O)n1CC1CC1)N(CCCN)C(=O)c1ccc(C)cc1 (centres undefined)

The remaining lines, values behind:

Compound: Cc1ccc(C(=O)N(CCCN)C(c2nc3snc(C)c3c(=O)n2Cc2ccccc2)C(C)C)cc1 (single isomer, unassigned; (+))
inhibition (Cavia porcellus [3]): 76%
inhibition [4]: 80%
inhibition [5]: 71%
Activity (Rattus norvegicus [6]): Active
Activity (Rattus norvegicus [7]): Active
Activity (Rattus norvegicus [8]): Active
Activity (Rattus norvegicus [9]): Active
Activity (Rattus norvegicus [10]): Active
Activity (Rattus norvegicus [11]): Active
Activity (Rattus norvegicus [12]): Active
Activity (Rattus norvegicus [13]): Active
inhibition [14]: 42%
inhibition [15]: 35%
inhibition (Cavia porcellus [16]): 99%
inhibition (Cavia porcellus [17]): 87%

Compound: CCC(c1nc2onc(C)c2c(=O)n1Cc1ccccc1)N(CCCN)C(=O)c1ccc(C)cc1 (centres undefined)
IC50 [1]: 0.016 µM
IC50 (COLO 205; Homo sapiens, COLO 205, 72 h): 0.023 µM
solubility at 24 h [2]: 69 µM (≈ 32.7 µg/mL)

Compound: CCC(c1nc2snc(C)c2c(=O)n1Cc1ccccc1)N(CCCN)C(=O)c1ccc(C)cc1 (stereo in doubt; 68)
IC50 [1]: 0.001 µM
IC50 (COLO 205; Homo sapiens, COLO 205, 72 h): 0.003 µM
clearance [18]: 50 mL/min/kg

Compound: CCC(c1nc2ccsc2c(=O)n1Cc1ccccc1)N(CCCN)C(=O)c1ccc2ccccc2c1 (centres undefined)
IC50 [1]: 0.03 µM
IC50 (COLO 205; Homo sapiens, COLO 205, 72 h): 0.2 µM

Compound: CCC(c1nc2c(C)nsc2c(=O)n1Cc1ccccc1)N(CCCN)C(=O)c1ccc(C)cc1 (centres undefined)
IC50 [1]: 0.005 µM
IC50 (COLO 205; Homo sapiens, COLO 205, 72 h): 0.045 µM

Compound: CCC(c1nc2snc(C)c2c(=O)n1Cc1ccccc1)N(CCCN)C(=O)c1ccc(C)cc1 (stereo in doubt; 62)
IC50 [1]: 0.003 µM
IC50 (COLO 205; colo 205): 0.004 µM
solubility at 24 h [2]: 1570 µM (≈ 770 µg/mL)

Source: ChEMBL document CHEMBL1828558, “Discovery of (+)-N-(3-aminopropyl)-N-[1-(5-benzyl-3-methyl-4-oxo-[1,2]thiazolo[5,4-d]pyrimidin-6-yl)-2-methylpropyl]-4-methylbenzamide (AZD4877), a kinesin spindle protein inhibitor and potential anticancer agent” (J Med Chem, 2011)
